In EPA's ToxRefDB 2:

Tests used:
[1] = test system: rabbit; conditions: Prenatal developmental toxicity study, Oral, Gavage/Intubation, dose end: 19 GD
[2] = test system: rat; conditions: Fertility (Segment I), sprague dawley, Oral, Gavage/Intubation, dose end: 49 day
[3] = test system: rat; conditions: Fertility (Segment I), sprague dawley, Oral, Gavage/Intubation, dose end: 7 GD
[4] = group: maternal, reproductive / reproductive performance / fertility / fertility + reproductive / reproductive performance / pregnancy index / pregnancy …
[5] = group: parental, systemic / in life observation / body weight / body weight + systemic / in life observation / body weight / body weight gain + systemic / in…
[6] = group: maternal, reproductive / reproductive performance / estrous cycle / abnormal + reproductive / reproductive performance / estrous cycle / corpora lutea…
[7] = group: maternal, reproductive / reproductive performance / implantations / implantations
[8] = group: parental, systemic / in life observation / body weight / body weight gain + systemic / in life observation / clinical signs / abnormal respiratory …

SMILES | NEL ([1]; group: developmental, developmental / developmental malformation / bone / absent + developmental / developmental malformation / bone / fused) | NEL ([1]; group: maternal, reproductive / reproductive performance / postimplantation loss / postimplantation loss) | LEL [2, 4] | LOAEL [2, 4] | NEL [2, 4] | NOAEL [2, 4] | LEL [2, 5] | NEL [2, 5] | LOAEL ([2]; group: parental, systemic / pathology gross / sperm measure / sperm count) | NOAEL ([2]; group: parental, systemic / pathology gross / sperm measure / sperm count + systemic / in life observation / body weight / body weight + systemic / in life …) | LOAEL [3, 6] | NOAEL [3, 6] | LEL [3, 7] | NEL [3, 7] | LEL [3, 8] | LOAEL [3, 8] | NEL [3, 8] | NOAEL [3, 8]
CCc1nn(CCO)c(CC)c1Oc1cc(C#N)cc(C#N)c1 [Lersivirine] | 250 mg/kg/day | < 100 mg/kg/day | – | – | – | – | – | – | – | – | – | – | – | – | – | – | – | –
CCc1c(C(=O)NN2CCCCC2)nn(-c2ccc(Cl)cc2Cl)c1-c1ccc(Br)cc1 [Surinabant] | – | – | 300 mg/kg/day | 300 mg/kg/day | 100 mg/kg/day | 100 mg/kg/day | 100 mg/kg/day | < 100 mg/kg/day | 300 mg/kg/day | 100 mg/kg/day | 50 mg/kg/day | 10 mg/kg/day | 10 mg/kg/day | < 10 mg/kg/day | 10 mg/kg/day | > 100 mg/kg/day | < 10 mg/kg/day | ≥ 100 mg/kg/day
